Test results: patent US20230075822A1, “USE OF CASTALAGIN OR ANALOGS THEREOF FOR ANTI-CANCER EFFICACY AND TO INCREASE THE RESPONSE TO IMMUNE CHECKPOINT INHIBITORS” (THE ROYAL INSTITUTION FOR THE ADVANCEMENT OF …, priority 2020, published 2023)

Experiments:
MCA-205 sarcoma [1] = assay: Subcutaneous MCA-205 sarcoma tumor model (anti-PD-1 sensitive), SPF-reared mice; format: in vivo, C57BL/6 mice; details: for anti-cancer activity (tumor size at sacrifice): in the presence of anti-PD-1
Method: FIG. 1A is a schematic of the protocol used to study the effect of a Camu camu extract (CC) alone and additive effect when combined to anti-PD-1 therapy in a murine tumor model sensitive to anti-PD-1 therapy. Syngeneic C57BL/6 mice were implanted with 0.8×10^6 MCA-205 sarcoma, subcutaneously and treated intraperitoneally (i.p.) when tumors reached 20 to 35 mm^2 in size with anti-PD-1 mAb (250 μg/mouse; clone RMP1-14,) or isotype control (clone 2A3) with or without daily oral gavage with 200 mg/kg of [NT] Powder from SunFood). Murine studies. All animal studies were approved by the Institutional Animal Care Committee (CIPA) and carried out in compliance with the Canadian Council on Animal Care guidelines. Murine experiments were conducted using seven-week-old female C57BL/6 mice, obtained from Charles River, Canada. Germ-free female C57BL/6 mice were purchased from the International Microbiome Centre Germ-Free Facility (University of Calgary, Canada) and maintained at the CR-CHUM Germ-Free Facility. Cell culture, reagents and tumor cell lines. MCA-205 fibrosarcoma cells and E0771 mammary adenocarcinoma cells, class I MHC H-2b syngeneic cell lines for C57BL/6 mice, were used for this study. MCA-205 cells were cultured at 37° C. in the presence of 5% CO2 in Roswell Park Memorial Institute (RPMI) 1640 (Gibco-lnvitrogen) containing 10% Fetal bovine serum (FBS) (Wisent), 2 mM L-glutamine (Wisent), 100 IU/ml penicillin/streptomycin (Wisent), 1 mM sodium pyruvate (Wisent) and MEM non-essential amino acids (Gibco-lnvitrogen). E0771 cells were cultured at 37° C. in the presence of 5% CO2 in Dulbecco's Modified Eagle's Medium (DMEM) (Gibco-lnvitrogen) containing 10% FBS (Wisent), 2 mM L-glutamine, 100 IU/ml penicillin/streptomycin (Wisent), 1 mM sodium pyruvate (Wisent). Subcutaneous model of MCA-205 sarcoma and E0771 breast cancer. Syngeneic C57BL/6 mice were implanted with 0.8×10^6 MCA-205 or 0.5×10^6 E0771 subcutaneously. When tumors reached 20 to 35 mm^2 in size, mice were treated four times (or two times for flow cytometry analysis, see section below) intraperitoneally (i.p.) every three day with anti-PD-1 monoclonal antibody (mAb) (250 μg/mouse; clone RMP1-14, BioXcell) or isotype control (clone 2A3, BioXcell). Upon treatment initiation, mice received a daily oral gavage with the following products: Myrciaria dubia, [NT] raw extract (Sunfood) (200 mg/kg per mouse), fractions from the extraction round 1 (P, INT, NP, Insol) (40.18 mg/kg per mouse), fractions from the extraction round 2 (P1, P2, P3 and P4) (equivalent to fraction P dose of 40.18 mg/kg per mouse), […] (extracted from CC, see isolation process below) (0.85 mg/kg per mouse), ellagic acid (0.85 mg/kg per mouse) (Sigma-Aldrich), urolithin A (0.85 mg/kg per mouse) (Sigma-Aldrich), […] (0.5 mg/kg per mouse) (PhytoProof®, Sigma-Aldrich) and castalagin at different concentration: 1/8, 1/6, 1/4, 1/2 of the standard concentration, at the standard concentration (0.85 mg/kg per mouse), 1.5-fold (1.25 mg/kg per mouse) and three-fold increase concentration (2.55 mg/kg per mouse) (PhytoProof©, Sigma-Aldrich or isolated from food grade oak, see isolation process below). In the control group mice received daily oral gavage with water (100 μL) Tumor area was routinely monitored every three days by means of a caliper. In the depletion experiments, we used the anti-CD8 mAb (150 μg/mouse; clone 53-6.7, BioXcell) or isotype control (clone 2A3, BioXcell.

MCA-205 sarcoma [2] = assay: Avatar mice: FMT from responder (R) / non-responder (NR) NSCLC patients, MCA-205 tumors; format: in vivo, C57BL/6 mice
Method: FIG. 5A is a schematic of the experimental design of avatar mice experiments. FMT from feces samples from Non-responders (NR) and responders (R) Non-small cell lung cancer (NSCLC) patients were individually performed after 3 days of ATB in SPF C57BI6 mice. Two weeks later, MCA-205 sarcoma cells were inoculated and daily gavage with water or CC were performed in combination with sequential injections of αPD-1 or IsoPD-1 mAb.
FIG. 11A is a graph showing the effect of castalagin (0.85 mg/kg) in the presence or not of anti-PD-1 on tumor growth kinetics in the in the ATB-avatar model after FMT from 1 NR NSCLC patient with daily gavage with castalagin or water in combination with αPD1 mAb or IsoPD-1. Unpaired t-tests were used. Means ±SEM are represented. *p<0.05. […]
Fecal microbiota transplantation (FM7) experiments. FMT was performed as previously published Routy et al. by thawing fecal material from 5 different Non-Small cell lung cancer (NSCLC) patients amenable to immune checkpoint blockers (ICI after appropriate ethics approval at the Centre de recherche du Centre hospitalier de l'Université de Montréal (CRCHUM) in Montreal. Patient records were retrospectively analyzed to identify their response status. Two weeks after FMT, tumor cells were injected subcutaneously and mice were treated with anti-PD-1 mAb or isotype control +/− CC, castalagin or water as described above.

O=C1OC[C@H]2OC(=O)c3cc(O)c(O)c(O)c3-c3c(O)c(O)c(O)c4c3C(=O)O[C@H]([C@H]3OC(=O)c5c-4c(O)c(O)c(O)c5[C@@H]3O)[C@@H]2OC(=O)c2cc(O)c(O)c(O)c2-c2c1cc(O)c(O)c2O [castalagin, Castalagin]
dose dependence of anti-cancer activity (MCA-205 sarcoma [1]; 6 concentrations from ⅛ to 3-fold the standard dose): dose-dependent effect with a potential plateau | antitumor effect (MCA-205 sarcoma [1]; dose experiment, 1/4 concentration dose (0.21 mg/kg)): no antitumor effect | anti-cancer activity (tumor size at sacrifice) (MCA-205 sarcoma [1]; dose experiment, 3-fold concentration (2.55 mg/kg per mouse)): did not the standard dose | anti-cancer activity (tumor size at sacrifice) (MCA-205 sarcoma [1]; dose experiment, standard dose (0.85 mg/kg)): anti-cancer activity became significant | anti-cancer activity (tumor size at sacrifice) (MCA-205 sarcoma [1]; dose experiment, ½ dose (0.42 mg/kg)): Some anti-cancer activity was observed | antitumor activity (tumor growth) (MCA-205 sarcoma [2]; castalagin 0.85 mg/kg + αPD-1, post-FMT from NR NSCLC patients): additive effect when combined with αPD-1 | antitumor activity (tumor growth) (MCA-205 sarcoma [2]; castalagin 0.85 mg/kg alone, post-FMT from NR NSCLC patients, ATB and GF conditions): able to restore antitumor activity
